In patent US20200399262A1, “COMPOUNDS FOR INHIBITING PROTEIN DEGRADATION AND METHODS OF USE THEREOF IN THE TREATMENT OF CANCER” (PI Therapeutics Ltd, priority 2018, published 2020):
≈ marks a conversion by molar mass, not a printed value.

Key:
MDA-MB-231 = experiment: NCI60 screen cytotoxicity; assay type: cell-based; conditions: Homo sapiens, Breast cancer, read-out: Compound B1 EC50
MDA-MB-468 = experiment: NCI60 screen cytotoxicity; assay type: cell-based; conditions: Homo sapiens, Breast cancer, read-out: Compound B1 EC50
BT-549 = experiment: NCI60 screen cytotoxicity; assay type: cell-based; conditions: Homo sapiens, Breast cancer, read-out: Compound B1 EC50
MCF-7 = experiment: NCI60 screen cytotoxicity; assay type: cell-based; conditions: Homo sapiens, MCF7, Breast cancer, read-out: Compound B1 EC50
SW-620 = experiment: NCI60 screen cytotoxicity; assay type: cell-based; conditions: Homo sapiens, Colon cancer, read-out: Compound B1 EC50
HCT-116 = experiment: NCI60 screen cytotoxicity; assay type: cell-based; conditions: Homo sapiens, Colon cancer, read-out: Compound B1 EC50
HCC-2998 = experiment: NCI60 screen cytotoxicity; assay type: cell-based; conditions: Homo sapiens, Colon cancer, read-out: Compound B1 EC50
HCT-15 = experiment: NCI60 screen cytotoxicity; assay type: cell-based; conditions: Homo sapiens, Colon cancer, read-out: Compound B1 EC50
COLO-205 = experiment: NCI60 screen cytotoxicity; assay type: cell-based; conditions: Homo sapiens, Colon cancer, read-out: Compound B1 EC50
CCRF-CEM = experiment: NCI60 screen cytotoxicity; assay type: cell-based; conditions: Homo sapiens, Leukemia, read-out: Compound B1 EC50
MOLT-4 = experiment: NCI60 screen cytotoxicity; assay type: cell-based; conditions: Homo sapiens, Leukemia, read-out: Compound B1 EC50
HL-60 = experiment: NCI60 screen cytotoxicity; assay type: cell-based; conditions: Homo sapiens, Leukemia, read-out: Compound B1 EC50
HOP-62 = experiment: NCI60 screen cytotoxicity; assay type: cell-based; conditions: Homo sapiens, Lung cancer, read-out: Compound B1 EC50
NCI-H522 = experiment: NCI60 screen cytotoxicity; assay type: cell-based; conditions: Homo sapiens, Lung cancer, read-out: Compound B1 EC50
SK-OV-3 = experiment: NCI60 screen cytotoxicity; assay type: cell-based; conditions: Homo sapiens, Ovarian cancer, read-out: Compound B1 EC50
IGR-OV1 = experiment: NCI60 screen cytotoxicity; assay type: cell-based; conditions: Homo sapiens, IGROV-1, Ovarian cancer, read-out: Compound B1 EC50
OVCAR-5 = experiment: NCI60 screen cytotoxicity; assay type: cell-based; conditions: Homo sapiens, Ovarian cancer, read-out: Compound B1 EC50
UO-31 = experiment: NCI60 screen cytotoxicity; assay type: cell-based; conditions: Homo sapiens, Renal cancer, read-out: Compound B1 EC50
786-0 = experiment: NCI60 screen cytotoxicity; assay type: cell-based; conditions: Homo sapiens, Renal cancer, read-out: Compound B1 EC50
ACHN = experiment: NCI60 screen cytotoxicity; assay type: cell-based; conditions: Homo sapiens, Renal cancer, read-out: Compound B1 EC50
SN12C = experiment: NCI60 screen cytotoxicity; assay type: cell-based; conditions: Homo sapiens, Renal cancer, read-out: Compound B1 EC50
DU-145 = experiment: NCI60 screen cytotoxicity; assay type: cell-based; conditions: Homo sapiens, Prostate cancer, read-out: Compound B1 EC50
LOX IMVI = experiment: NCI60 screen cytotoxicity; assay type: cell-based; conditions: Homo sapiens, Melanoma, read-out: Compound B1 EC50
MALME-3M = experiment: NCI60 screen cytotoxicity; assay type: cell-based; conditions: Homo sapiens, Melanoma, read-out: Compound B1 EC50
M14 = experiment: NCI60 screen cytotoxicity; assay type: cell-based; conditions: Homo sapiens, Melanoma, read-out: Compound B1 EC50
SK-MEL-2 = experiment: NCI60 screen cytotoxicity; assay type: cell-based; conditions: Homo sapiens, Melanoma, read-out: Compound B1 EC50
SK-MEL-28 = experiment: NCI60 screen cytotoxicity; assay type: cell-based; conditions: Homo sapiens, Melanoma, read-out: Compound B1 EC50
SK-MEL-5 = experiment: NCI60 screen cytotoxicity; assay type: cell-based; conditions: Homo sapiens, Melanoma, read-out: Compound B1 EC50
SNB-19 = experiment: NCI60 screen cytotoxicity; assay type: cell-based; conditions: Homo sapiens, CNS, read-out: Compound B1 EC50
[1] = Kinetic solubility by differential UV absorbance; assay type: physicochemical; conditions: aqueous buffer, kinetic from dmso stock; DMSO stock diluted in PBS, OD before and after centrifugation
Experimental: FIG. 3A-3B depict the kinetic solubility of Compound B1 (FIG. 3A) and Compound E1 (FIG. 3B) as measured by differential UV absorbance of the compounds, as performed before and after centrifugation. Soluble concentrations were determined when OD was equivalent between centrifuged and non-centrifuged fractions. Compounds were dissolved from co-solvent stock, and further serially 2-fold diluted in PBS. OD was measured at the maximal absorbance for each compound before (BC) and after (AC) centrifugation, using Spark 20M, Tecan.
Kinetic solubility quantification. Compound B1/Compound E1 DMSO stock was diluted with PBS by serial 2-fold dilutions. Then, the samples were centrifuged for 5 minutes at 17,000 g to precipitate any insoluble compound. Each sample was tested at a single wave length (Compound B1 at […]; Compound E1 at […]) in duplicate before and after centrifugation to assess solubility of the compound. Soluble concentrations were determined when optical density (OD) was equivalent between centrifuged and non-centrifuged fractions.
Kinetic solubility of all Compounds was determined by differential UV absorbance before and after centrifugation. […] Solubility concentration was determined when OD was equivalent between centrifuged and non-centrifuged fractions (FIG. 3A-3B).

SW620 xenograft = experiment: SW620 colorectal flank xenograft in nude mice; assay type: in vivo; conditions: 8 mg/kg IV, TIW for 21 days
Excerpt: FIG. 6A-6D show the evaluated in-vivo efficacy of Compound AA in a colorectal mouse flank xenograft models (HCT116, SW620). […] HCT-116 or SW620 cells (5×10^6 cells/mouse) were implanted in the rear flank of mail mice (6 weeks of age at the time of tumor implantation). On Day 20-23, mice were randomized for equivalent distribution of tumor volumes to treatment groups (n=5/group) and treated IV with vehicle, Compound AA (FIG. 6A, FIG. 6B) TIW for 21 days. Data are presented as mean tumor volume±SD. Body weight % changes in treated animals observed at end point (FIG. 6C, FIG. 6D). Animal xenograft models. MM1.S, HCT-116, SW620 cell lines were purchased from ATCC and used for xenograft model. The cells were cultured in RPMI medium (Sigma-Aldrich) supplemented with 10% fetal bovine serum (FBS) and divided for up to 5 passages. Shortly prior to injection, cell suspension was mixed with Matrigel at 1:[…]) and injected subcutaneously to the rear flank area of male nude athymic 6 weeks old mice to obtain administration of 5×10^6 cells/animal. On day 20-23, when tumor volume reached 100-150 mm^3, mice were randomized for equivalent distribution of tumor volumes to treatment groups (n=5/group) and treated via intravenous injection.

SMILES: CN(C)CC(=O)NCC(=O)N1C/C(=C\c2ccc(C#N)cc2)C(=O)/C(=C/c2ccc(C#N)cc2)C1 [Compound B1]
- EC50 (MDA-MB-231): < 300 nM
- EC50 (MDA-MB-468): < 300 nM
- EC50 (BT-549): < 300 nM
- EC50 (MCF-7): 300 to 1000 nM
- EC50 (SW-620): < 300 nM
- EC50 (HCT-116): < 300 nM
- EC50 (HCC-2998): < 300 nM
- EC50 (HCT-15): < 300 nM
- EC50 (COLO-205): 300 to 1000 nM
- EC50 (CCRF-CEM): < 300 nM
- EC50 (MOLT-4): < 300 nM
- EC50 (HL-60): < 300 nM
- EC50 (HOP-62): < 300 nM
- EC50 (NCI-H522): < 300 nM
- EC50 (SK-OV-3): < 300 nM
- EC50 (IGR-OV1): < 300 nM
- EC50 (OVCAR-5): < 300 nM
- EC50 (UO-31): 300 to 1000 nM
- EC50 (786-0): 300 to 1000 nM
- EC50 (ACHN): < 300 nM
- EC50 (SN12C): < 300 nM
- EC50 (DU-145): < 300 nM
- EC50 (LOX IMVI): < 300 nM
- EC50 (MALME-3M): < 300 nM
- EC50 (M14): < 300 nM
- EC50 (SK-MEL-2): < 300 nM
- EC50 (SK-MEL-28): 300 to 1000 nM
- EC50 (SK-MEL-5): 300 to 1000 nM
- EC50 (SNB-19): 300 to 1000 nM
- solubility kinetic [1]: 50 µM (≈ 23.4 µg/mL)

SMILES: CN(C)CCCS(=O)(=O)N1C/C(=C\c2ccc(C#N)cc2)C(=O)/C(=C/c2ccc(C#N)cc2)C1 [Compound AA]
- Animal body weight (SW620 xenograft): not considerably affected
- tumor growth compared to vehicle control (SW620 xenograft): significantly inhibited tumor growth
